The results in this text go back to US20030220376A1, “Methods for treating carbonic anhydrase mediated disorders” (Pharmacia Corporation, priority 2001, published 2003).

Where “and” joins values, the source holds several entries; their conditions need not be identical. Equal entries are not always repeated.

The first experiment has as its target T1, human carbonic anhydrase II (Homo sapiens, UniProt P00918).
T1 construct: purchased Sigma C-6165
The experiment in a line: Carbonic anhydrase II inhibition assay (p-nitrophenol acetate, absorbance at 405 nm). Format: biochemical. The conditions noted are these: Table 2; overall value of N determinations; read-out: CA Assay IC50 (μM) and concentration of inhibitor added. Here is the method: Final concentrations of each inhibitor ranged from 1 picomolar to 1 micromolar. Control samples that included either no inhibitor or no enzyme were also performed.
The admixture of substrate and enzyme initiates the enzyme reaction. […] The inhibition at each inhibitor concentration was measured in triplicate. The IC50 value was then derived using the GraphPad Prism curve fitting software. […] The compound number listed in Table 2 and 3 corresponds with the same compound number detailed in Table 1.
In the case of `CCCCOc1ccc(-c2cc(C(F)(F)F)nn2-c2ccc(S(N)(=O)=O)cc2)cc1` [Compound 2], the IC50 was 0.04 µM.
Still for that read-out and setting: then `NS(=O)(=O)c1ccc(-n2nc(-c3ccccc3)cc2-c2ccccc2)cc1` [Compound 3], with 0.04 µM.
Turning to `CC(=O)SCc1cc(-c2ccc(Cl)cc2)n(-c2ccc(S(N)(=O)=O)cc2)n1` [Compound 4], the IC50 was 0.09 µM.
On the same count and under the same terms, the same measure for `C=C1N[C@@H]2[C@@H](CS[C@@H]2CCCCC(=O)NCCOCCOCCNC(=O)CSCc2cc(-c3ccc(Cl)cc3)n(-c3ccc(S(N)(=O)=O)cc3)n2)N1` [Compound 6]: 0.18 µM; for `CS(=O)(=O)c1ccc(-n2nccc2-c2ccc(F)cc2)cc1` [IX, reference compound]: over 100 µM.
With `CS(=O)(=O)c1ccc(C2=C(c3ccccc3)C(=O)OC2)cc1` [VIII, Rofecoxib, reference compound], the IC50 is over 100 µM.
As to `O=C(c1ccc(-n2nc(C(F)(F)F)cc2-c2ccc(F)cc2)cc1)C(F)(F)F` [X, reference compound], the IC50 is over 100 µM.

The experiment is the same for the next values; noted with them: Table 2; single values of the N determinations; read-out: CA Assay IC50 (μM), individual determinations in parentheses.
On to `Cc1ccc(-c2cc(C(F)(F)F)n(-c3ccc(S(N)(=O)=O)cc3)n2)cc1` [Compound 1], for which the IC50 was 0.015 µM and 0.021 µM and 0.004 µM.
For the compound `CCCCOc1ccc(-c2cc(C(F)(F)F)nn2-c2ccc(S(N)(=O)=O)cc2)cc1` [Compound 2], the IC50 was 0.03 µM and 0.04 µM.

The experiment is the same for the next values; noted with them: Table 3; mean; read-out: Mean IC50.
As for `NC(=O)c1nn(-c2ccc(S(N)(=O)=O)cc2)c2c1CCc1cnccc1-2` [Compound 8], the IC50 was found to be 0.195 µM.
On to `COC(=O)C1c2ccccc2-c2c1cnn2-c1ccc(S(N)(=O)=O)cc1` (stereo not shown) [Compound 9], for which the IC50 stood at 0.0334 µM.
`NC(=O)c1nn(-c2ccc(S(N)(=O)=O)cc2)c2c1C[S+]([O-])c1ccccc1-2` (stereo not shown) [Compound 12]: the IC50 is 0.465 µM.
Same read-out and setting: the same measure for `CC1CCc2c(c(C(=O)O)nn2-c2ccc(S(N)(=O)=O)cc2)C1` (stereo not shown) [Compound 13]: 0.07 µM; for `NC(=O)c1nn(-c2ccc(S(N)(=O)=O)cc2)c2c1CNc1ccccc1-2` [Compound 14]: 0.101 µM.
On the same count and under the same terms, then `CCOC(=O)c1nn(-c2ccc(S(N)(=O)=O)cc2)c2c1CCC=C2` [Compound 15], with 0.0056 µM; and `CS(=O)(=O)Nc1cccc(-c2cc(C(N)=O)nn2-c2ccc(S(N)(=O)=O)cc2)c1` [Compound 16], with 0.0338 µM; and `CN(C)/C=N/c1cccc(-c2cc(C(N)=O)nn2-c2ccc(S(N)(=O)=O)cc2)c1` [Compound 17], with 0.181 µM.
Still for that read-out and setting: then `NS(=O)(=O)c1ccc(-n2ncc3c2-c2ccncc2CC3)cc1` [Compound 18], with 0.251 µM.
As for `CNC(=O)c1nn(-c2ccc(S(N)(=O)=O)cc2)c2c1CCc1[nH]ncc1-2` [Compound 19], the IC50 turned out to be 0.0777 µM.
On the same count and under the same terms, the same measure for `COCC(=O)Nc1ccc2c(c1)-c1c(c(C(N)=O)nn1-c1ccc(S(N)(=O)=O)cc1)CC2` [Compound 20]: 0.435 µM; for `NC(=O)c1nn(-c2ccc(S(N)(=O)=O)cc2)c2c1CCc1cn(CCO)nc1-2` [Compound 21]: 1.22 µM; for `NS(=O)(=O)c1ccc(-n2nc(C(=O)O)c3c2-c2cn[nH]c2CC3)cc1` [Compound 22]: 1.24 µM.
The same measure, in the same setting: then `CCOc1cccc2c(C(N)=O)nn(-c3ccc(S(N)(=O)=O)cc3)c12` [Compound 23], with 0.202 µM.
Regarding `NC(=O)c1nn(-c2ccc(S(N)(=O)=O)cc2)c2c1CCc1cnc(N)nc1-2` [Compound 24], the IC50 turned out to be 0.06 µM.
Regarding `C#CCN(CC#C)S(=O)(=O)c1ccc(-n2nc(C(N)=O)c3c2-c2nc(N)ncc2CC3)cc1` [Compound 25], the IC50 was 2.91 µM.
With `NC(=O)c1cc(-c2ccco2)n(-c2ccc(S(N)(=O)=O)cc2)n1` [Compound 26], the IC50 came out at 0.0794 µM.
Same read-out and setting: the same measure for `NC(=O)c1cc(-c2ccncc2)n(-c2ccc(S(N)(=O)=O)cc2)n1` [Compound 27]: 0.418 µM.
Turning to `NC(=O)c1cc(-c2cccnc2)n(-c2ccc(S(N)(=O)=O)cc2)n1` [Compound 28], the IC50 worked out at 0.523 µM.
Still for that read-out and setting: then `NC(=O)c1cc(-c2ccccn2)n(-c2ccc(S(N)(=O)=O)cc2)n1` [Compound 29], with 0.127 µM; and `NC(=O)c1nn(-c2ccc(S(N)(=O)=O)cc2)c2c1CCC=C2` [Compound 30], with 0.0219 µM; and `COC(=O)c1cc(-c2ccc(OC)cc2)n(-c2ccc(S(N)(=O)=O)cc2)n1` [Compound 31], with 0.239 µM.
The same measure, in the same setting: then `COC(=O)c1cc(-c2ccccc2)n(-c2ccc(S(N)(=O)=O)cc2)n1` [Compound 32], with 0.182 µM; and `NS(=O)(=O)c1ccc(-n2nc(C(F)(F)F)cc2-c2cccnc2)cc1` [Compound 33], with 0.0386 µM; and `COC(C)Cc1cc(C(F)F)nn1-c1ccc(S(N)(=O)=O)cc1` (stereo not shown) [Compound 34], with 0.0184 µM.
Consider `C/C=C/c1cc(C(F)F)nn1-c1ccc(S(N)(=O)=O)cc1` [Compound 35], for which the IC50 was determined as 0.018 µM.
On the same count and under the same terms, the same measure for `COC(C)(C)Cc1cc(C(F)F)nn1-c1ccc(S(N)(=O)=O)cc1` [Compound 36]: 0.0463 µM.
As for `NS(=O)(=O)c1ccc(-n2nc(C(=O)O)cc2-c2ccccc2)cc1` [Compound 37], the IC50 turned out to be 0.599 µM.
Regarding `NC(=O)c1cc(-c2ccccc2)n(-c2ccc(S(N)(=O)=O)cc2)n1` [Compound 38], the IC50 was determined as 0.21 µM.
Still for that read-out and setting: then `COc1ccc(-c2cc(C(N)=O)nn2-c2ccc(S(N)(=O)=O)cc2)cc1` [Compound 39], with 0.258 µM.
As for `CNC(=O)c1cc(-c2ccc(OC)cc2)n(-c2ccc(S(N)(=O)=O)cc2)n1` [Compound 41], the IC50 came out at 0.334 µM.
Take `COc1ccc(-c2cc(C(=O)O)nn2-c2ccc(S(N)(=O)=O)cc2)cc1` [Compound 42]: the IC50 was 4.9 µM.
`COc1ccc(-c2ccnn2-c2ccc(S(N)(=O)=O)cc2)cc1` [Compound 43]: the IC50 was found to be 0.203 µM.
In the case of `NS(=O)(=O)c1ccc(-n2nc(C(=O)NCC(=O)O)cc2-c2ccc(Cl)cc2)cc1` [Compound 44], the IC50 is 0.08 µM.
On the same count and under the same terms, the same measure for `NS(=O)(=O)c1ccc(-n2nc(C(F)(F)F)c3c2-c2ccccc2[S+]([O-])C3)cc1` (stereo not shown) [Compound 45]: 0.0431 µM; for `COc1ccc2c(c1F)C[S+]([O-])c1c(C(F)(F)F)nn(-c3ccc(S(N)(=O)=O)cc3)c1-2` (stereo not shown) [Compound 46]: 0.06 µM.
On the same count and under the same terms, the same measure for `NS(=O)(=O)c1ccc(-n2nc(CO)cc2-c2ccc(O)cc2)cc1` [Compound 47]: 0.0671 µM; for `NS(=O)(=O)c1ccc(-n2nc(C(F)(F)F)cc2O)cc1` [Compound 48]: 0.0812 µM; for `COc1cc(C(F)(F)F)nn1-c1ccc(S(N)(=O)=O)cc1` [Compound 49]: 0.0087 µM.
Take `CC(C)Oc1cc(C(F)(F)F)nn1-c1ccc(S(N)(=O)=O)cc1` [Compound 50]: the IC50 is 0.0171 µM.
On the same count and under the same terms, then `NC(=O)c1nn(-c2ccc(S(N)(=O)=O)cc2)c2c1CSCC2` [Compound 51], with 0.0356 µM; and `NS(=O)(=O)c1ccc(-n2nc(C(F)(F)F)cc2C(=O)C(=O)c2ccccc2)cc1` [Compound 53], with 0.0105 µM; and `NS(=O)(=O)c1ccc(-n2ncc(C(F)(F)F)c2-c2ccccc2)cc1` [Compound 56], with 0.109 µM.
Still for that read-out and setting: then `NS(=O)(=O)c1ccc(-n2nc(C(F)(F)F)cc2C2CCNCC2)cc1` [Compound 57], with 0.139 µM; and `CNC(=O)c1nn(-c2ccc(S(N)(=O)=O)cc2)cc1-c1ccccc1` [Compound 58], with 0.389 µM; and `Cc1ccc(-c2cc(C(F)(F)F)n(-c3ccc(S(N)(=O)=O)cc3)n2)cc1` [Compound 63], with 0.0035 µM.
Still for that read-out and setting: then `NS(=O)(=O)c1ccc(-n2nc(C(F)(F)F)cc2O)cc1` [Compound 65], with 0.0812 µM.

The same experiment, now with this note: read-out: IC50 for inhibition of CA II activity.
As for `Cc1ccc(-c2cc(C(F)(F)F)n(-c3ccc(S(N)(=O)=O)cc3)n2)cc1` [Compound 1], the IC50 worked out at 0.01 µM.
Consider `CS(=O)(=O)c1ccc(C2=C(c3ccccc3)C(=O)OC2)cc1` [VIII, Rofecoxib, reference compound], for which the IC50 is over 100 µM.
